Laboratory results published in the supplement of paper PMC10883282.

Columns and labels:
Experiment in all cases: relative viability vs DMSO control (72 h) (fraction); higher = more viable cells
A204 = tested on: A204
In short: (§1)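 After seeding at densities set for 80–90% confluence in 384-well plates, sarcoma cell lines waited 24 h before 2.5 µl of serially diluted compound was added. Source plates held 10 mM down to 0.0002 mM. Plates were incubated 72 h at 37 °C with 5% CO2, with 0.1% DMSO vehicle and a 5 µM positive control, and relative viability was taken from ATPLite as percent growth averaged over up to triplicate wells, with 1 set as full and 0 as none.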

G401 = tested on: G401
In short: as §1

HT1080 = tested on: HT1080
In short: as §1

KHOS-240S = tested on: KHOS-240S
In short: as §1

KHOS-NP = tested on: KHOS-NP
In short: as §1

RD-ES = tested on: RD-ES
In short: as §1

SK-ES-1 = tested on: SK-ES-1
In short: as §1

SW1353 = tested on: SW1353
In short: as §1

SW684 = tested on: SW684
In short: as §1

SW872 = tested on: SW872
In short: as §1

SW982 = tested on: SW982
In short: as §1

SYO-1 = tested on: SYO-1
In short: as §1

CN1CCN(CCOc2cc(OC3CCOCC3)c3c(Nc4c(Cl)ccc5c4OCO5)ncnc3c2)CC1 [Saracatinib]
Conditions	relative viability
A204, 0.00017 µM	1.03
A204, 0.00051 µM	1.05
A204, 0.00152 µM	1.06
A204, 0.00457 µM	1.06
A204, 0.01372 µM	1.04
A204, 0.04115 µM	1.01
A204, 0.1235 µM	0.992
A204, 0.3704 µM	0.963
A204, 1.111 µM	0.882
A204, 3.333 µM	0.679
A204, 10 µM	0.468
G401, 0.00017 µM	1.03
G401, 0.00051 µM	1.05
G401, 0.00152 µM	1.008
G401, 0.00457 µM	1.04
G401, 0.01372 µM	1.05
G401, 0.04115 µM	1.01
G401, 0.1235 µM	0.955
G401, 0.3704 µM	0.912
G401, 1.111 µM	0.86
G401, 3.333 µM	0.797
G401, 10 µM	0.668
HT1080, 0.00017 µM	1.05
HT1080, 0.00051 µM	1.04
HT1080, 0.00152 µM	1.05
HT1080, 0.00457 µM	1.01
HT1080, 0.01372 µM	1.022
HT1080, 0.04115 µM	1.02
HT1080, 0.1235 µM	1.053
HT1080, 0.3704 µM	1.04
HT1080, 1.111 µM	1.01
HT1080, 3.333 µM	0.952
HT1080, 10 µM	0.859
KHOS-240S, 0.00017 µM	1.07
KHOS-240S, 0.00051 µM	1.08
KHOS-240S, 0.00152 µM	1.07
KHOS-240S, 0.00457 µM	1.07
KHOS-240S, 0.01372 µM	1.07
KHOS-240S, 0.04115 µM	1.08
KHOS-240S, 0.1235 µM	1.046
KHOS-240S, 0.3704 µM	0.934
KHOS-240S, 1.111 µM	0.802
KHOS-240S, 3.333 µM	0.614
KHOS-240S, 10 µM	0.451
KHOS-NP, 0.00017 µM	1.094
KHOS-NP, 0.00051 µM	1.1
KHOS-NP, 0.00152 µM	1.08
KHOS-NP, 0.00457 µM	1.07
KHOS-NP, 0.01372 µM	1.07
KHOS-NP, 0.04115 µM	1.061
KHOS-NP, 0.1235 µM	1.06
KHOS-NP, 0.3704 µM	1.05
KHOS-NP, 1.111 µM	0.994
KHOS-NP, 3.333 µM	0.862
KHOS-NP, 10 µM	0.693
RD-ES, 0.00017 µM	0.975
RD-ES, 0.00051 µM	1
RD-ES, 0.00152 µM	0.99
RD-ES, 0.00457 µM	1.01
RD-ES, 0.01372 µM	0.979
RD-ES, 0.04115 µM	0.982
RD-ES, 0.1235 µM	0.966
RD-ES, 0.3704 µM	0.935
RD-ES, 1.111 µM	0.898
RD-ES, 3.333 µM	0.858
RD-ES, 10 µM	0.735
SK-ES-1, 0.00017 µM	0.989
SK-ES-1, 0.00051 µM	1.05
SK-ES-1, 0.00152 µM	1.04
SK-ES-1, 0.00457 µM	1.01
SK-ES-1, 0.01372 µM	1.04
SK-ES-1, 0.04115 µM	1.01
SK-ES-1, 0.1235 µM	0.968
SK-ES-1, 0.3704 µM	0.951
SK-ES-1, 1.111 µM	0.903
SK-ES-1, 3.333 µM	0.81
SK-ES-1, 10 µM	0.604
SW684, 0.00017 µM	1.11
SW684, 0.00051 µM	1.15
SW684, 0.00152 µM	1.16
SW684, 0.00457 µM	1.177
SW684, 0.01372 µM	1.15
SW684, 0.04115 µM	1.17
SW684, 0.1235 µM	1.14
SW684, 0.3704 µM	1.15
SW684, 1.111 µM	1.07
SW684, 3.333 µM	1.05
SW684, 10 µM	1.08
SW872, 0.00017 µM	1.07
SW872, 0.00051 µM	1.05
SW872, 0.00152 µM	1.06
SW872, 0.00457 µM	1.019
SW872, 0.01372 µM	1.05
SW872, 0.04115 µM	0.977
SW872, 0.1235 µM	0.9173
SW872, 0.3704 µM	0.828
SW872, 1.111 µM	0.693
SW872, 3.333 µM	0.655
SW872, 10 µM	0.59
SW982, 0.00017 µM	1.02
SW982, 0.00051 µM	1.09
SW982, 0.00152 µM	1.05
SW982, 0.00457 µM	1.06
SW982, 0.01372 µM	1.08
SW982, 0.04115 µM	1.08
SW982, 0.1235 µM	0.919
SW982, 0.3704 µM	0.739
SW982, 1.111 µM	0.568
SW982, 3.333 µM	0.486
SW982, 10 µM	0.442
SW1353, 0.00017 µM	1.03
SW1353, 0.00051 µM	0.988
SW1353, 0.00152 µM	1.02
SW1353, 0.00457 µM	0.996
SW1353, 0.01372 µM	0.945
SW1353, 0.04115 µM	0.929
SW1353, 0.1235 µM	0.891
SW1353, 0.3704 µM	0.843
SW1353, 1.111 µM	0.7072
SW1353, 3.333 µM	0.6847
SW1353, 10 µM	0.666
SYO-1, 0.00017 µM	1.02
SYO-1, 0.00051 µM	1.02
SYO-1, 0.00152 µM	0.971
SYO-1, 0.00457 µM	0.965
SYO-1, 0.01372 µM	0.958
SYO-1, 0.04115 µM	0.917
SYO-1, 0.1235 µM	0.91
SYO-1, 0.3704 µM	0.826
SYO-1, 1.111 µM	0.66
SYO-1, 3.333 µM	0.481
SYO-1, 10 µM	0.389

C[C@@H]1COC(Nc2ccc3ncnc(Nc4ccc(OCc5nccs5)c(Cl)c4)c3c2)=N1 [Varlitinib]
Conditions	relative viability
A204, 0.00017 µM	1.06
A204, 0.00051 µM	1.06
A204, 0.00152 µM	1.07
A204, 0.00457 µM	1.06
A204, 0.01372 µM	1.08
A204, 0.04115 µM	1.11
A204, 0.1235 µM	1.06
A204, 0.3704 µM	1.01
A204, 1.111 µM	0.905
A204, 3.333 µM	0.763
A204, 10 µM	0.258
G401, 0.00017 µM	0.96
G401, 0.00051 µM	0.979
G401, 0.00152 µM	0.993
G401, 0.00457 µM	0.966
G401, 0.01372 µM	0.981
G401, 0.04115 µM	0.993
G401, 0.1235 µM	0.973
G401, 0.3704 µM	0.939
G401, 1.111 µM	0.8904
G401, 3.333 µM	0.8118
G401, 10 µM	0.663
HT1080, 0.00017 µM	1.06
HT1080, 0.00051 µM	1.03
HT1080, 0.00152 µM	1.05
HT1080, 0.00457 µM	1.05
HT1080, 0.01372 µM	1.04
HT1080, 0.04115 µM	1.06
HT1080, 0.1235 µM	1
HT1080, 0.3704 µM	1.01
HT1080, 1.111 µM	1.02
HT1080, 3.333 µM	0.99
HT1080, 10 µM	0.97
KHOS-240S, 0.00017 µM	1.02
KHOS-240S, 0.00051 µM	1.03
KHOS-240S, 0.00152 µM	1.02
KHOS-240S, 0.00457 µM	1.05
KHOS-240S, 0.01372 µM	1.048
KHOS-240S, 0.04115 µM	1.05
KHOS-240S, 0.1235 µM	1.05
KHOS-240S, 0.3704 µM	0.996
KHOS-240S, 1.111 µM	0.9899
KHOS-240S, 3.333 µM	0.947
KHOS-240S, 10 µM	0.849
KHOS-NP, 0.00017 µM	1.03
KHOS-NP, 0.00051 µM	1.05
KHOS-NP, 0.00152 µM	1.06
KHOS-NP, 0.00457 µM	1.05
KHOS-NP, 0.01372 µM	1.06
KHOS-NP, 0.04115 µM	1.05
KHOS-NP, 0.1235 µM	1.07
KHOS-NP, 0.3704 µM	1.06
KHOS-NP, 1.111 µM	1.04
KHOS-NP, 3.333 µM	1.04
KHOS-NP, 10 µM	0.94
RD-ES, 0.00017 µM	0.968
RD-ES, 0.00051 µM	1.01
RD-ES, 0.00152 µM	0.957
RD-ES, 0.00457 µM	0.985
RD-ES, 0.01372 µM	0.975
RD-ES, 0.04115 µM	0.991
RD-ES, 0.1235 µM	1
RD-ES, 0.3704 µM	0.948
RD-ES, 1.111 µM	0.961
RD-ES, 3.333 µM	0.973
RD-ES, 10 µM	0.89
SK-ES-1, 0.00017 µM	0.975
SK-ES-1, 0.00051 µM	0.974
SK-ES-1, 0.00152 µM	0.976
SK-ES-1, 0.00457 µM	0.99
SK-ES-1, 0.01372 µM	0.971
SK-ES-1, 0.04115 µM	0.997
SK-ES-1, 0.1235 µM	0.967
SK-ES-1, 0.3704 µM	0.962
SK-ES-1, 1.111 µM	0.948
SK-ES-1, 3.333 µM	0.873
SK-ES-1, 10 µM	0.671
SW684, 0.00017 µM	1.01
SW684, 0.00051 µM	1.09
SW684, 0.00152 µM	1.07
SW684, 0.00457 µM	1.08
SW684, 0.01372 µM	1.08
SW684, 0.04115 µM	1.08
SW684, 0.1235 µM	1.063
SW684, 0.3704 µM	1.08
SW684, 1.111 µM	1.06
SW684, 3.333 µM	1.03
SW684, 10 µM	1.03
SW872, 0.00017 µM	1.09
SW872, 0.00051 µM	1.07
SW872, 0.00152 µM	1.1
SW872, 0.00457 µM	1.08
SW872, 0.01372 µM	1.065
SW872, 0.04115 µM	1.08
SW872, 0.1235 µM	1.05
SW872, 0.3704 µM	1.04
SW872, 1.111 µM	0.993
SW872, 3.333 µM	0.939
SW872, 10 µM	0.743
SW982, 0.00017 µM	0.982
SW982, 0.00051 µM	1.01
SW982, 0.00152 µM	0.966
SW982, 0.00457 µM	0.974
SW982, 0.01372 µM	0.986
SW982, 0.04115 µM	0.993
SW982, 0.1235 µM	0.984
SW982, 0.3704 µM	0.932
SW982, 1.111 µM	0.918
SW982, 3.333 µM	0.949
SW982, 10 µM	0.883
SW1353, 0.00017 µM	1.03
SW1353, 0.00051 µM	0.981
SW1353, 0.00152 µM	0.968
SW1353, 0.00457 µM	1.04
SW1353, 0.01372 µM	0.978
SW1353, 0.04115 µM	1.01
SW1353, 0.1235 µM	0.947
SW1353, 0.3704 µM	0.886
SW1353, 1.111 µM	0.824
SW1353, 3.333 µM	0.812
SW1353, 10 µM	0.738
SYO-1, 0.00017 µM	1.04
SYO-1, 0.00051 µM	1.04
SYO-1, 0.00152 µM	1.03
SYO-1, 0.00457 µM	1.03
SYO-1, 0.01372 µM	1.02
SYO-1, 0.04115 µM	1.03
SYO-1, 0.1235 µM	1.02
SYO-1, 0.3704 µM	1.02
SYO-1, 1.111 µM	1.01
SYO-1, 3.333 µM	0.941
SYO-1, 10 µM	0.55
